The values below come from patent publication US10233186B2, “Inhibitors of activin receptor-like kinase” (BLUEPRINT MEDICINES CORPORATION, priority 2016, dated 2019).

In assay [1] the target is T1, ALK2 R206H (GST-tagged mutant ALK2) (Homo sapiens, UniProt Q04771, R206H).
T1 construct: purchased Carna Bioscience or ThermoFisher 09-148 or PV6232
T1 sequence (Q04771 21-509 R206H): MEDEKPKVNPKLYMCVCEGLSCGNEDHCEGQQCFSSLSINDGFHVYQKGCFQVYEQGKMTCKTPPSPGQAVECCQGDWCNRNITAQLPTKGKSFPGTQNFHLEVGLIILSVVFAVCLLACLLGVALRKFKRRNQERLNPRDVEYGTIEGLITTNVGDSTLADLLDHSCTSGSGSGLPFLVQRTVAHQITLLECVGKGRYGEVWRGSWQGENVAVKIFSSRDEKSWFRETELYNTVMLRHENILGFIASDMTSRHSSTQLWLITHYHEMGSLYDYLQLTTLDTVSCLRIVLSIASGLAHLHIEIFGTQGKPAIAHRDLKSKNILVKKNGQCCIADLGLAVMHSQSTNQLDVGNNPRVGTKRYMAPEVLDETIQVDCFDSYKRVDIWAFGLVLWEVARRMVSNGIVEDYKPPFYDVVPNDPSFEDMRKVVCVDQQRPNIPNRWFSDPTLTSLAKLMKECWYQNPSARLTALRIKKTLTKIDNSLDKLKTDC
Briefly: ALK binding assay (LANTHASCREEN TR-FRET competitive binding, displacement of Kinase Tracer 178). The settings on record: ALK2 R206H, LANTHASCREEN TR-FRET competitive binding; read-out: Binding Assay (IC50).

For the next assay, the target named is T2, human ALK2 R206H (Homo sapiens, UniProt Q04771, R206H).
T2 construct: expressed in transfected cells; host or cells: HEK293 (ATCC CRL1573), lentivirus transduction, blasticidin selection
T2 sequence (Q04771 21-509 R206H): T1 sequence (Q04771 21-509 R206H)
Briefly: Cell-based ALK2-R206H cell activity assay (Smad1-Ser463/Ser465 phosphorylation by AlphaLISA in HEK293-ALK2-R206H cells). The settings on record: read-out: Cell Line (Cell Assay IC50). The method in brief:
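Stable HEK293 cells expressing C-terminally FLAG-tagged human ALK2 R206H (lentiviral, blasticidin-selected) were treated with compounds in 10-point, 3-fold dilutions from 10 μM or 1 μM top, in duplicate. Smad1 Ser463/Ser465 phosphorylation was read by AlphaLISA.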
(Alpha assays give light when donor and acceptor beads are brought close together.)

Usually IC50 stands for the midpoint of a concentration-inhibition curve. `CC(C)N1CCC(c2ccc(-c3cc4c(N5CCN(C(=O)NCC(C)(C)C)CC5)ccnn4c3)cc2)CC1` [Compound 664]: the results for the IC50 (in assay [1]; at human ALK2 R206H) were less than 0.01 µM and 0.1 to 0.5 µM, respectively.

Consider `CC(C)N1CCC(c2ccc(-c3cc4c(N5CCN(C(=O)OCC6COC6)CC5)ccnn4c3)cc2)CC1` [Compound 665], for which the IC50 in assay [1] is less than 0.01 µM; on human ALK2 R206H, less than 0.1 µM.

As for `CC(C)N1CCC(c2ccc(-c3cc4c(N5CCN(C(=O)O[C@@H]6CCOC6)CC5)ccnn4c3)cc2)CC1` [Compound 666], the IC50 is less than 0.01 µM in assay [1] and less than 0.1 µM at human ALK2 R206H.

Consider `CC(C)N1CCC(c2ccc(-c3cc4c(N5CCN(C(=O)O[C@H]6CCOC6)CC5)ccnn4c3)cc2)CC1` [Compound 667], for which the IC50 is less than 0.01 µM in assay [1] and less than 0.1 µM at human ALK2 R206H.

As for `CC(C)N1CCC(C)(c2ccc(-c3cc4c(N5CCN(C(=O)OC6COC6)CC5)ccnn4c3)cc2)CC1` [Compound 668], the IC50 is less than 0.01 µM in assay [1] and 0.1 to 0.5 µM at human ALK2 R206H.

On to `CC(C)N1CCC(c2ccc(-c3cc4c(N5CCN(C(=O)OC6COC6)[C@H](C)C5)ccnn4c3)cc2)CC1` [Compound 669], for which the IC50 is less than 0.01 µM in assay [1] and less than 0.1 µM at human ALK2 R206H.

For the molecule `CC(C)NC(=O)N1CCN(c2ccnn3cc(-c4ccc([C@]5(C)CN(C(C)C)CCN5C)cc4)cc23)CC1` [Compound 671], the IC50 in assay [1] was less than 0.01 µM; at human ALK2 R206H, less than 0.1 µM.

With `CC(C)NC(=O)N1CCN(c2ccnn3cc(-c4ccc([C@@]5(C)CN(C(C)C)CCN5C)cc4)cc23)CC1` [Compound 672], the values for the IC50 (in assay [1]; at human ALK2 R206H) were less than 0.01 µM and less than 0.1 µM, respectively.

On to `CCNC(=O)N1CCN(c2ccnn3cc(-c4ccc([C@]5(OCC)CCCN(C(C)C)C5)cc4)cc23)CC1` [Compound 673], for which the half-maximal inhibitory concentration (IC50) in assay [1] is less than 0.01 µM; on human ALK2 R206H, less than 0.1 µM.

Consider `CCNC(=O)N1CCN(c2ccnn3cc(-c4ccc([C@@]5(OCC)CCCN(C(C)C)C5)cc4)cc23)CC1` [Compound 674], for which the IC50 is less than 0.01 µM in assay [1] and less than 0.1 µM on human ALK2 R206H.

Regarding `CCNC(=O)N1CCN(c2ccnn3cc(-c4ccc(C5(OCC)CCN(C(C)C)CC5)cc4)cc23)CC1` [Compound 675], the IC50 in assay [1] is less than 0.01 µM; on human ALK2 R206H, less than 0.1 µM.

Regarding `CCO[C@]1(c2ccc(-c3cc4c(N5CCN(C(=O)NC(C)C)CC5)ccnn4c3)cc2)CCN(C(C)C)C1` [Compound 676], the concentration for half-maximal inhibition (IC50) in assay [1] is less than 0.01 µM; at human ALK2 R206H, less than 0.1 µM.

In the case of `CCO[C@@]1(c2ccc(-c3cc4c(N5CCN(C(=O)NC(C)C)CC5)ccnn4c3)cc2)CCN(C(C)C)C1` [Compound 677], the concentration for half-maximal inhibition (IC50) in assay [1] was less than 0.01 µM; at human ALK2 R206H it was less than 0.1 µM.

`CC(C)N1CC[C@H](O)[C@@H](c2ccc(-c3cc4c(N5CCN(C(=O)OC6COC6)CC5)ccnn4c3)cc2)C1` [Compound 678]: the half-maximal inhibitory concentration (IC50) is less than 0.01 µM in assay [1] and less than 0.1 µM at human ALK2 R206H.

For the molecule `CC(C)N1CC[C@@H](O)[C@H](c2ccc(-c3cc4c(N5CCN(C(=O)OC6COC6)CC5)ccnn4c3)cc2)C1` [Compound 679], the IC50 in assay [1] was less than 0.01 µM; at human ALK2 R206H, less than 0.1 µM.

Regarding `COC1(c2ccc(-c3cc4c(N5CCN(C(=O)C6CC6)CC5)ccnn4c3)cc2F)CCN(C(C)C)CC1` [Compound 680], the IC50 in assay [1] was less than 0.01 µM; at human ALK2 R206H, less than 0.1 µM.

For `COC1(c2ccc(-c3cc4c(N5CCN(C(=O)[C@H]6C[C@@H]6F)CC5)ccnn4c3)cc2)CCN(C(C)C)CC1` [Compound 681], the IC50 in assay [1] is less than 0.01 µM; on human ALK2 R206H, less than 0.1 µM.

As to `COC1(c2ccc(-c3cc4c(N5CCN(C(=O)C6CC6)CC5)ccnn4c3)c(F)c2)CCN(C(C)C)CC1` [Compound 682], the IC50 is less than 0.01 µM in assay [1] and less than 0.1 µM on human ALK2 R206H.

As to `CO[C@]1(c2ccc(-c3cc4c(N5CCN(C(=O)C6CC6)CC5)ccnn4c3)cc2F)CCCN(C(C)C)C1` [Compound 683], the results for the IC50 (in assay [1]; at human ALK2 R206H) were less than 0.01 µM and less than 0.1 µM, respectively.

`CO[C@@]1(c2ccc(-c3cc4c(N5CCN(C(=O)C6CC6)CC5)ccnn4c3)cc2F)CCCN(C(C)C)C1` [Compound 684]: the IC50 in assay [1] was less than 0.01 µM; on human ALK2 R206H, less than 0.1 µM.

As for `COC1(c2ccc(-c3cc4c(N5CCN(C(=O)OC(C)C)CC5)ccnn4c3)cc2)CCN(C(C)C)CC1` [Compound 685], the concentration for half-maximal inhibition (IC50) is less than 0.01 µM in assay [1] and less than 0.1 µM on human ALK2 R206H.

With `CO[C@@]1(c2ccc(-c3cc4c(N5CCN(C(=O)NC(C)C)CC5)ccnn4c3)nc2)CCCN(C(C)C)C1` [Compound 686], the IC50 in assay [1] was less than 0.01 µM; at human ALK2 R206H, less than 0.1 µM.

Consider `CO[C@]1(c2ccc(-c3cc4c(N5CCN(C(=O)NC(C)C)CC5)ccnn4c3)nc2)CCCN(C(C)C)C1` [Compound 687], for which the IC50 in assay [1] was less than 0.01 µM; on human ALK2 R206H it was less than 0.1 µM.

As to `COC1(c2ccc(-c3cc4c(N5CCN(C(=O)NC(C)C)CC5)ccnn4c3)nc2)CCN(C(C)C)CC1` [Compound 688], the IC50 in assay [1] is less than 0.01 µM; on human ALK2 R206H, less than 0.1 µM.

As for `COC1(c2cnc(-c3cc4c(N5CCN(C(=O)C6CC6)CC5)ccnn4c3)c(F)c2)CCN(C(C)C)CC1` [Compound 689], the IC50 in assay [1] was less than 0.01 µM; on human ALK2 R206H, 0.1 to 0.5 µM.

Consider `CC(C)N1CCC[C@@](F)(c2ccc(-c3cc4c(N5CCN(C(=O)OC6COC6)CC5)ccnn4c3)cc2)C1` [Compound 690], for which the IC50 was less than 0.01 µM in assay [1] and less than 0.1 µM at human ALK2 R206H.

Consider `CC(C)N1CCC[C@](F)(c2ccc(-c3cc4c(N5CCN(C(=O)OC6COC6)CC5)ccnn4c3)cc2)C1` [Compound 691], for which the IC50 in assay [1] was less than 0.01 µM; on human ALK2 R206H, less than 0.1 µM.

For `CC(C)N1CCC[C@@H](c2ccc(-c3cc4c(N5CCN(C(=O)OC6COC6)CC5)ccnn4c3)cc2F)C1` [Compound 692], the IC50 was less than 0.01 µM in assay [1] and less than 0.1 µM on human ALK2 R206H.

`CC(C)N1CCC[C@H](c2ccc(-c3cc4c(N5CCN(C(=O)OC6COC6)CC5)ccnn4c3)cc2F)C1` [Compound 693]: the IC50 in assay [1] is less than 0.01 µM; at human ALK2 R206H, less than 0.1 µM.

`CC(C)N1CCC(c2ccc(-c3cc4c(N5CCN(C(=O)OC6COC6)CC5)ccnn4c3)c(F)c2)CC1` [Compound 694]: the IC50 is less than 0.01 µM in assay [1] and less than 0.1 µM at human ALK2 R206H.

As for `CC(C)N1CCC[C@@](F)(c2ccc(-c3cc4c(N5CCN(C(=O)OC6COC6)CC5)ccnn4c3)nc2)C1` [Compound 695], the results for the IC50 (in assay [1]; on human ALK2 R206H) were less than 0.01 µM and less than 0.1 µM, respectively.

As to `CC(C)N1CCC[C@](F)(c2ccc(-c3cc4c(N5CCN(C(=O)OC6COC6)CC5)ccnn4c3)nc2)C1` [Compound 696], the IC50 in assay [1] is less than 0.01 µM; on human ALK2 R206H, less than 0.1 µM.

Turning to `CCNC(=O)N1CCN(c2ccnn3cc(-c4ccc(C5(OC)CCN(C(C)C)CC5)c(F)c4)cc23)CC1` [Compound 697], the values for the IC50 (in assay [1]; at human ALK2 R206H) were less than 0.01 µM and less than 0.1 µM, respectively.

For `CCNC(=O)N1CCN(c2ccnn3cc(-c4ccc([C@@]5(OC)CCCN(C(C)C)C5)c(F)c4)cc23)CC1` [Compound 698], the IC50 in assay [1] is less than 0.01 µM; at human ALK2 R206H it was less than 0.1 µM.

On to `CCNC(=O)N1CCN(c2ccnn3cc(-c4ccc([C@]5(OC)CCCN(C(C)C)C5)c(F)c4)cc23)CC1` [Compound 699], for which the IC50 in assay [1] is less than 0.01 µM; on human ALK2 R206H, less than 0.1 µM.

As for `CCOC(=O)N1CCN(c2ccnn3cc(-c4ccc(C5(OC)CCN(C(C)C)CC5)cc4F)cc23)CC1` [Compound 701, ethyl 4-(6-(2-fluoro-4-(1-isopropyl-4-methoxypiperidin-4-yl)phenyl)pyrrolo[1,2-b]pyridazin-4-yl)piperazine-1-carboxylate], the values for the IC50 (in assay [1]; at human ALK2 R206H) were less than 0.01 µM and less than 0.1 µM, respectively.

For the molecule `CC(C)N1CC[C@@H](c2ccc(-c3cc4c(N5CCN(C(=O)[C@H]6CC[C@H](C#N)CC6)CC5)ccnn4c3)nc2)C1` [Compound 702], the IC50 in assay [1] is less than 0.01 µM; on human ALK2 R206H, less than 0.1 µM.

As to `CC(C)N1CC[C@H](c2ccc(-c3cc4c(N5CCN(C(=O)[C@H]6CC[C@H](C#N)CC6)CC5)ccnn4c3)nc2)C1` [Compound 703], the IC50 in assay [1] was less than 0.01 µM; on human ALK2 R206H, less than 0.1 µM.

Consider `CC(C)N1CCC(c2ccc(-c3cc4c(N5CCN(C(=O)OC6CC(C#N)C6)CC5)ccnn4c3)cc2)CC1` (centres unmarked) [Compound 704], for which the IC50 is less than 0.01 µM in assay [1] and less than 0.1 µM on human ALK2 R206H.

As to `COC1(c2ccc(-c3cc4c(N5CCN(C(=O)[C@H]6C[C@@H]6C#N)CC5)ccnn4c3)cc2)CCN(C(C)C)CC1` [Compound 705], the IC50 in assay [1] was less than 0.01 µM; on human ALK2 R206H, less than 0.1 µM.

In the case of `CC(C)N1CC(O)(c2ccc(-c3cc4c(N5CCN(C(=O)C6CCC(C#N)CC6)CC5)ccnn4c3)cc2)C1` (centres unmarked) [Compound 706], the IC50 in assay [1] was less than 0.01 µM; on human ALK2 R206H it was less than 0.1 µM.

As for `CC(C)N1CCC(c2ccc(-c3cc4c(N5CCN(C(=O)NCC(F)(F)F)CC5)ccnn4c3)cc2)CC1` [Compound 708], the IC50 is less than 0.01 µM in assay [1] and less than 0.1 µM at human ALK2 R206H.

Consider `CC(C)N1CCC(c2ccc(-c3cc4c(N5CCN(C(=O)OC6CCOCC6)CC5)ccnn4c3)cc2)CC1` [Compound 709], for which the values for the IC50 (in assay [1]; on human ALK2 R206H) were less than 0.01 µM and 0.1 to 0.5 µM, respectively.
